Consider two compounds from patent publication US8470765B2, “Polypeptides and antibacterial or antiseptic use of same” (AnGes MG, Inc., priority 2009, dated 2013).

Values after ≈ are worked out from the molar mass of the structure shown. Some results are limits rather than exact numbers.

Test [1] has as its system Acinetobacter baumanni JCM6841. Particulars: Table 4; two tests, first/second value where not identical.
Test [2] deals with Micrococcus luteus NBRC13867. The test is described as follows: microbe, parasite or virus in culture. As to conditions: NBRC13867, read-out: MIC Micrococcus luteus.
For test [3], the system named is Bacillus subtilis NBRC3134. Briefly: microbe, parasite or virus in culture. Particulars: NBRC3134, read-out: MIC Bacillus subtilis.
For test [4], the system named is Salmonella enteritidis IID 604. The test is described as follows: microbe, parasite or virus in culture. Particulars: Salmonella enterica, read-out: MIC Salmonella Enteritidis.
For test [5], the system named is Salmonella typhimurium JCM1652. The test is described as follows: microbe, parasite or virus in culture. As to conditions: Salmonella enterica, read-out: MIC Salmonella Typhimurium.
Test [6] deals with Streptococcus pyogenes JCM5674. The test is described as follows: microbe, parasite or virus in culture. Particulars: JCM5674, read-out: MIC Streptococcus pyogenes.
The test system of test [7] is Bacteroides fragilis JCM 11019. Briefly: microbe, parasite or virus in culture. As to conditions: JCM11019, read-out: MIC Bacteroides fragilis.
The subject of test [8] is Fusobacterium nucleatum JCM 11025. The test is described as follows: microbe, parasite or virus in culture. As to conditions: JCM11025, read-out: MIC Fusobacterium nucleatum.
The subject of test [9] is Actinobacillus actinomycetemcomitans JCM2434. The test is described as follows: microbe, parasite or virus in culture. Particulars: Aggregatibacter actinomycetemcomitans, JCM2434, read-out: MIC Actinobacillus actinomycetemcomitans.
Test [10] has as its system Staphylococcus aureus ATCC29213. The test is described as follows: microbe, parasite or virus in culture. Format: cell-based. Particulars: Staphylococcus aureus, ATCC29213, read-out: MIC Staphylococcus aureus; Table 4; two tests, first/second value where not identical. The essentials:
(§1)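 Inoculum: 4–6 h subculture, turbidity matched to McFarland #0.5, diluted to ~10^5 CFU/mL final. Peptide dilutions in MHB from 128 μg/mL; 37° C, 16–24 h. MIC = lowest concentration inhibiting visible growth; ≥2 independent runs per strain.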

The subject of test [11] is Staphylococcus epidermidis JCM 2414. The test is described as follows: microbe, parasite or virus in culture. Format: cell-based. Particulars: Staphylococcus epidermidis, JCM2414, read-out: MIC Staphylococcus epidermidis; Table 4; two tests, first/second value where not identical. The essentials: as §1
Test [12] deals with methicillin-resistant Staphylococcus (MRSA) MRSA(i). Briefly: organism not typed. Particulars: read-out: MIC MRSA(i). The method, then: (§2) Bacteria (Escherichia coli ATCC 25922, Pseudomonas aeruginosa ATCC 27853, Staphylococcus aureus ATCC29213, Klebsiella pneumoniae JCM 1662, Enterobacter cloacae JCM 1232, Enterobacter aerogenes JCM 1235 and Staphylococcus epidermidis JCM 2414) were inoculated to Mueller-Hinton broth: MHB or LB medium, and cultured at a temperature and period suited for each strain. From the thus obtained colonies, each strain was inoculated to a fresh liquid medium and cultured for 16 to 20 hours. Then an aliquot having a volume (10 to 50 appropriate to each strain was inoculated to a fresh liquid medium and cultured for 4 to 6 hours, followed by the measurement of the absorbance at 600 nm. After comparing the turbidity with McFarland #0.5, the resultant was diluted with a medium. Each strain was added to about 10^5 CFU/mL (final concentration).
(§3) Further, the antibacterial activities against the clinical strains collected and isolated from infected patients were also examined. The tests were carried out for two methicillin-resistant Staphylococcus (MRSA) (MRSA (i) and (ii)), two methicillin-sensitive Staphylococcus (MSSA) (MSSA (i) and (ii)), five Pseudomonas aeruginosa, Pseudomonas aeruginosa 1, Pseudomonas aeruginosa 6, Pseudomonas aeruginosa 8. Pseudomonas aeruginosa 9 and Pseudomonas aeruginosa 12, totally 9 clinical strains. The MRSA and MSSA clinical strains were tested by the same method as Staphylococcus aureus ATCC29213, and Pseudomonas clinical strains were tested by the same method as Pseudomonas aeruginosa ATCC 27853.
(§4) Each of the peptide solutions to be tested was diluted with MHB to obtain a solution of 128 μg/mL. This solution was serially diluted with the medium to prepare peptide-containing media having concentrations of 128, 64, 32, 16, 8.0, 4.0 and 2.0 μg/mL respectively. […] By dilution with sterilized purified water to 1.0 mg/mL, positive control-containing media having concentrations of 16, 8, 4, 2, 1.0, 0.25, 0.12 and 0.06 μg/mL, respectively for TOB; 0.5, 0.12 and 0.06 μg/mL, respectively, for OX; and 16, 8, 4, 2, 1.0, 0.25, 0.12, 0.06, 0.06, 0.03 and 0.008 μg/mL, respectively, for MEPM, were prepared.
(§5) To a 96-well microtiter plate, 0.1 mL of the inoculation solution and 0.1 mL of the peptide- or positive control-containing medium having the respective concentration were added, and cultured at 37° C. for 16 to 24 hours (or a time period suited for the growth of the respective strain). The well not containing the sample was used as a negative control. After the culturing, the growth was visually observed, and the minimum concentration at which the growth was inhibited was defined as the minimum growth inhibition concentration (MIC).
(§6) The medium used in this test for bacteria was Mueller-Hinton broth. Independent experiments were carried out twice or more for each strain.

Test [13] deals with methicillin-resistant Staphylococcus (MRSA) MRSA(ii). Briefly: organism not typed. As to conditions: read-out: MIC MRSA(ii). The method, then:
as §2, §3, §4, §5, §6

In test [14] the test system is methicillin-sensitive Staphylococcus (MSSA) MSSA(i). Briefly: organism not typed. Particulars: read-out: MIC MSSA(i). The protocol:
as §2, §3, §4, §5, §6

In test [15] the test system is methicillin-sensitive Staphylococcus (MSSA) MSSA(ii). The test is described as follows: organism not typed. Particulars: read-out: MIC MSSA(ii). The method, then: as §2, §3, §4, §5, §6
Test [16] relates to Escherichia coli ATCC 25922. Briefly: ATP Assay (viability at 3 hours), Table 6. In kind it is cell-based. As to conditions: ATCC25922, 3 h, read-out: Escherichia coli ATP (viability, relative value to negative control). Summed up:
(§7)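 Log-phase bacteria at about 10^5 CFU/mL final in Mueller-Hinton broth were exposed 3 h at 37 °C to peptide (solution prepared at 10 μg/mL before 1:1 mixing with inoculum). ATP (BacTiter-Glo luminescence) relative to untreated wells defined viability; two independent experiments.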

The subject of test [17] is Pseudomonas aeruginosa ATCC 27853. The test is described as follows: ATP Assay (viability at 3 hours), Table 6. As to conditions: ATCC27853, 3 h, read-out: Pseudomonas aeruginosa ATP (viability, relative value to negative control). In kind it is cell-based. The essentials: as §7
Test [18] concerns Staphylococcus aureus ATCC29213. The test is described as follows: ATP Assay (viability at 3 hours), Table 6. In kind it is cell-based. As to conditions: ATCC29213, 3 h, read-out: Staphylococcus aureus ATP (viability, relative value to negative control). The essentials:
as §7

On to `O=C(N[C@H](CO)[C@H](O)c1ccc([N+](=O)[O-])cc1)C(Cl)Cl` [chloramphenicol], for which, in test [1], the “MIC Acinetobacter baumanni” value is listed as 16/32. In addition, the MIC is 1 µg/mL (≈ 3.09 µM) in [2]; 4 µg/mL (≈ 12.4 µM) in test [3]; 4 µg/mL (≈ 12.4 µM) in test [4]; 4 µg/mL (≈ 12.4 µM) in [5]; 2 µg/mL (≈ 6.19 µM) in test [6]; 1 µg/mL (≈ 3.09 µM) in test [7]. In addition, the MIC in test [8] came out at 0.25 µg/mL (≈ 0.774 µM); in test [9], 0.5 µg/mL (≈ 1.55 µM).
Broadly, the viability is a read-out of living cells in per cent, often relative to untreated cells. Regarding `Cc1onc(-c2ccccc2)c1C(=O)N[C@@H]1C(=O)N2[C@@H]1SC(C)(C)[C@@H]2C(=O)O` [oxacillin, reference compound], the MIC in test [10] is 0.15 to 0.5 µg/mL (≈ 0.374 to 1.25 µM); in test [11] it was 0.15 to 0.5 µg/mL (≈ 0.374 to 1.25 µM); in [12], less than 4000 µg/mL; in test [13], more than 8000 µg/mL; in test [14], 8 µg/mL (≈ 19.9 µM); in test [15] it was 2 µg/mL (≈ 4.98 µM). Besides, the figures for the viability at 10 µg/mL in [16], in [17] and in test [18] were 142%, 100% and 121%, respectively.
